Experimental data from publication PMC9501633, “Synthesis, Characterisation and Mechanism of Action of Anticancer 3-Fluoroazetidin-2-ones” (Pharmaceuticals, 2022).

Tests used:
[1] = tested on: CCRF-CEM; assay: NCI 60 cell line screen, Leukaemia; type: cell-based, human; details: one dose 10 µM
[2] = tested on: HL-60(TB); assay: NCI 60 cell line screen, Leukaemia; type: cell-based, human; details: one dose 10 µM
[3] = tested on: MOLT-4; assay: NCI 60 cell line screen, Leukaemia; type: cell-based, human; details: one dose 10 µM
[4] = tested on: RPMI-8226; assay: NCI 60 cell line screen, Leukaemia; type: cell-based, human; details: one dose 10 µM
[5] = tested on: SR; assay: NCI 60 cell line screen, Leukaemia; type: cell-based, human; details: one dose 10 µM
[6] = tested on: HOP-62; assay: NCI 60 cell line screen, NSCLung; type: cell-based, human; details: one dose 10 µM
[7] = tested on: NCI-H226; assay: NCI 60 cell line screen, NSCLung; type: cell-based, human; details: one dose 10 µM
[8] = tested on: NCI-H23; assay: NCI 60 cell line screen, NSCLung; type: cell-based, human; details: one dose 10 µM
[9] = tested on: NCI-H460; assay: NCI 60 cell line screen, NSCLung; type: cell-based, human; details: one dose 10 µM
[10] = tested on: COLO 205; assay: NCI 60 cell line screen, Colon; type: cell-based, human; details: one dose 10 µM
[11] = tested on: HCT-116; assay: NCI 60 cell line screen, Colon; type: cell-based, human; details: one dose 10 µM
[12] = tested on: HCT-15; assay: NCI 60 cell line screen, Colon; type: cell-based, human; details: one dose 10 µM
[13] = tested on: HT29; assay: NCI 60 cell line screen, Colon; type: cell-based, human
[14] = tested on: SW-620; assay: NCI 60 cell line screen, Colon; type: cell-based, human; details: one dose 10 µM
[15] = tested on: SF-268; assay: NCI 60 cell line screen, CNS; type: cell-based, human; details: one dose 10 µM
[16] = tested on: SF-295; assay: NCI 60 cell line screen, CNS; type: cell-based, human; details: one dose 10 µM
[17] = tested on: SF-539; assay: NCI 60 cell line screen, CNS; type: cell-based, human; details: one dose 10 µM
[18] = tested on: SNB-19; assay: NCI 60 cell line screen, CNS; type: cell-based, human; details: one dose 10 µM
[19] = tested on: U251; assay: NCI 60 cell line screen, CNS; type: cell-based, human
[20] = tested on: MALME-3M; assay: NCI 60 cell line screen, Melanoma; type: cell-based, human; details: one dose 10 µM
[21] = tested on: MDA-MB-435; assay: NCI 60 cell line screen, Melanoma; type: cell-based, human; details: one dose 10 µM
[22] = tested on: UACC-62; assay: NCI 60 cell line screen, Melanoma; type: cell-based, human; details: one dose 10 µM
[23] = tested on: IGROV1; assay: NCI 60 cell line screen, Ovarian; type: cell-based, human
[24] = tested on: RXF 393; assay: NCI 60 cell line screen, Renal; type: cell-based, human; details: one dose 10 µM
[25] = tested on: SN12C; assay: NCI 60 cell line screen, Renal; type: cell-based, human; details: one dose 10 µM
[26] = tested on: UO-31; assay: NCI 60 cell line screen, Renal; type: cell-based, human; details: one dose 10 µM
[27] = tested on: PC-3; assay: NCI 60 cell line screen, Prostate; type: cell-based, human; details: one dose 10 µM
[28] = tested on: MCF7; assay: NCI 60 cell line screen, Breast; type: cell-based, human; details: one dose 10 µM
[29] = tested on: BT-549; assay: NCI 60 cell line screen, Breast; type: cell-based, human; details: one dose 10 µM
[30] = tested on: T-47D; assay: NCI 60 cell line screen, Breast; type: cell-based, human; details: one dose 10 µM
[31] = tested on: MDA-MB-468; assay: NCI 60 cell line screen, Breast; type: cell-based, human; details: one dose 10 µM
[32] = tested on: NCI 60 cell line panel; assay: NCI 60 cell line screen, whole panel; type: cell-based
Protocol: The antiproliferative effects of selected compounds 33, 37 and 43 were initially evaluated in the NCI 60 cell line screen at 10 μM concentration (see Supplementary Materials Table S3). […] . […] .
Compound 33 was next selected for evaluation in the NCI 60 cell line five-dose screen. The GI50 (50% growth inhibition), TGI (total growth inhibition) and LC50 (50% lethal concentration) were determined in the NCI panel of 60 cell lines, using the sulphorhodamine B (SRB) protein assay (Table 5). The GI50 value provides the growth inhibition of the selected compound, while the cytotoxic effect is evaluated in the LC50 value. […] . […] . Glioblastoma is an aggressive and fast-growing brain tumour with a median survival time of 9–16 months from diagnosis, and these tumours quickly evolve resistance to temozolomide chemotherapy, which is the only FDA-approved treatment. […] . Further mechanistic and cellular studies were carried out and are described below.
aData obtained from NCI in vitro human tumour cell screen 1 dose assay (10 µM). 33 (NCI

For `CCOc1ccc(C2N(c3cc(OC)c(OC)c(OC)c3)C(=O)C2(F)F)cc1` (stereo not shown) [Compound 37, 4-(4-Ethoxyphenyl)-3,3-difluoro-1-(3,4,5-trimethoxyphenyl)azetidin-2-one], the inhibition at 10 µM ([1]; Homo sapiens) was 89.8%, the Growth % [1] was 10.2% and the inhibition at 10 µM ([2]; Homo sapiens) was 116%. It also gave a Growth % [2] of -15.97%, an inhibition at 10 µM ([3]; Homo sapiens) of 81.9% and a Growth % [3] of 18.14%. The inhibition at 10 µM ([4]; Homo sapiens) was 85.4%, the Growth % [4] was 14.64% and the inhibition at 10 µM ([5]; Homo sapiens) was 83.8%. For the same compound, the Growth % [5] was 16.25%, the inhibition at 10 µM ([6]; Homo sapiens) was 59.2% and the Growth % [6] was 40.81%. For the same compound, the inhibition at 10 µM ([7]; Homo sapiens) was 29%, the Growth % [7] was 71.01% and the inhibition at 10 µM ([8]; Homo sapiens) was 66.4%. For the same compound, the Growth % [8] was 33.57%, the inhibition at 10 µM ([9]; Homo sapiens) was 87.3% and the Growth % [9] was 12.73%. The inhibition at 10 µM ([10]; Homo sapiens) was 89.2%, the Growth % [10] was 10.78% and the inhibition at 10 µM ([11]; Homo sapiens) was 91.1%. It also gave a Growth % [11] of 8.92%, an inhibition at 10 µM ([12]; Homo sapiens) of 77.5% and a Growth % [12] of 22.55%. The inhibition at 10 µM ([13]; Homo sapiens, HT-29, one dose 10 µM) was 87.7%, the Growth % ([13]; one dose 10 µM) was 12.27% and the inhibition at 10 µM ([14]; Homo sapiens) was 74.5%. It also gave a Growth % [14] of 25.47%, an inhibition at 10 µM ([15]; Homo sapiens) of 47.6% and a Growth % [15] of 52.38%. It also gave an inhibition at 10 µM ([16]; Homo sapiens) of 43.7%, a Growth % [16] of 56.32% and an inhibition at 10 µM ([17]; Homo sapiens) of 89.2%. It also gave a Growth % [17] of 10.75%, an inhibition at 10 µM ([18]; Homo sapiens) of 45.9% and a Growth % [18] of 54.14%. For the same compound, the inhibition at 10 µM ([19]; Homo sapiens, U-251, one dose 10 µM) was 63.8%, the Growth % ([19]; one dose 10 µM) was 36.19% and the inhibition at 10 µM ([20]; Homo sapiens) was 36.9%. The Growth % [20] was 63.07%, the inhibition at 10 µM ([21]; Homo sapiens) was 83.2% and the Growth % [21] was 16.83%. For the same compound, the inhibition at 10 µM ([22]; Homo sapiens) was 48.4%, the Growth % [22] was 51.61% and the inhibition at 10 µM ([23]; Homo sapiens, IGROV-1, one dose 10 µM) was 62.2%. The Growth % ([23]; one dose 10 µM) was 37.8%, the inhibition at 10 µM ([24]; Homo sapiens) was 45.8% and the Growth % [24] was 54.19%. It also gave an inhibition at 10 µM ([25]; Homo sapiens) of 49%, a Growth % [25] of 50.97% and an inhibition at 10 µM ([26]; Homo sapiens) of 48.1%. It also gave a Growth % [26] of 51.9%, an inhibition at 10 µM ([27]; Homo sapiens) of 62.7% and a Growth % [27] of 37.3%. For the same compound, the inhibition at 10 µM ([28]; Homo sapiens, MCF7, MCF7) was 82.8%, the Growth % ([28]; MCF7) was 17.19% and the Inhibition % ([28]; MCF7) was 82.8%. The inhibition at 10 µM ([29]; Homo sapiens) was 55.8%, the Growth % [29] was 44.17% and the inhibition at 10 µM ([30]; Homo sapiens, T47D) was 30%. For the same compound, the Growth % [30] was 70.03%, the inhibition at 10 µM ([31]; Homo sapiens) was 65.1% and the Growth % [31] was 34.89%. The inhibition at 10 µM ([32]; Homo sapiens, 60 cell, one dose 10 μM, mean over the 60 cell lines, read-out: mean growth inhibition) was 59% and the “mean Growth %” value ([32]; one dose 10 µM, mean over the cell lines) was 41.05%.

`COc1ccc(/C=C\c2cc(OC)c(OC)c(OC)c2)cc1O` [CA-4, combretastatin A-4, reference compound] was tested, and the “MG-MID TGI” value ([32]; 5-dose assay, 48 h, mean-graph midpoint) was 10300 nM and the GI50 ([32]; Homo sapiens, 60 cell, 48 h, 5-dose assay, 48 h, mean-graph midpoint, read-out: MG-MID GI50) was 99 nM.
